Each compound was assayed against T1, SSTR4 (Homo sapiens, UniProt P31391) (assay: Inhibition of forskolin stimulated cAMP in CHO-K1 cells overexpressing SSTR4). Details: read-out: SSTR4 Activity pEC50 (converted).
T1 construct: host or cells: CHO-K1
Format: cell-based
Method: Inhibition of Forskolin Stimulated cAMP in Cells Overexpressing SSTR4
This cell-based assay measures the ability of compounds to inhibit forskolin stimulated cAMP in CHO-K1 cells overexpressing SSTR4. CHO-K1 cells overexpressing SSTR4 (CHO-SSTR4) are purchased from DiscoveRx (product code 95-0059C2). The CHO-SSTR4 cells are maintained in F12K media with 10% Fetal Bovine Serum (Hyclone), 1% Pen/Strep (Life Technologies), and 800 μg/mL G418 (Life Technologies). To perform the assay, 3000 cells are plated per well in white 384-well plate (Corning 3570) in 50 μL complete media and the cells are allowed to attach for 16 hours in a 37° C., 5% CO2 incubator. The next day, the culture media is removed from the cells and the cells are washed (added then removed) with Krebs Ringer Buffer (ZenBio, KRB-1000 mL). Test compounds are suspended in DMSO and diluted in stimulation buffer: Krebs Ringer Buffer plus 0.5% BSA (Roche), 300 μM IBMX (Sigma), and 350 nM forskolin (Sigma). The cells are incubated in 10 μL compound/stimulation buffer for 30 minutes at room temperature. Cellular cAMP levels are detected with a HTRF LANCE Ultra cAMP kit (Perkin Elmer, catalog number TRF0264).
The assay is performed in accordance with the manufacturer's instructions. Five μL of diluted Eu-W8044 labeled streptavidin (dilution: 1:50 in cAMP Detection Buffer) is added to each well. Then 5 μL of diluted biotin cAMP (dilution: 1:150 in cAMP Detection Buffer) is added to each well. The plates are covered and allowed to incubate for 60 minutes at room temperature on a shaker. HTRF (665 nm/615 nm) is read on a Perkin Elmer ENVISION plate reader. The pEC50 values are generated using Activity Base for Screening Data Management.

T1 sequence (P31391 whole entry): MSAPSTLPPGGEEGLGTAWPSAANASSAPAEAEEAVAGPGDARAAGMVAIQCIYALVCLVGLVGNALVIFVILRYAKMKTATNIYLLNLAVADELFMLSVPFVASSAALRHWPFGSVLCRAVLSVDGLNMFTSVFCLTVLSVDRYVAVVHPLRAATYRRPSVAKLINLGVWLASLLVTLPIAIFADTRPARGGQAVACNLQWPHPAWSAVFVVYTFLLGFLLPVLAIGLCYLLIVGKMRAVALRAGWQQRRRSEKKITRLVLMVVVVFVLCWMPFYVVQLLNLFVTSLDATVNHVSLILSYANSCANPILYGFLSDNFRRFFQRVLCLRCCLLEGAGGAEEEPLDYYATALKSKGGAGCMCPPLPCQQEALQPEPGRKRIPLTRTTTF

EC50	SMILES
15.8 nM	Cc1cccnc1OCC(C)(C)NC(=O)[C@H](C)[C@@H]1CCCN1C (racemic) [Example 66, (R)-N-(2-methyl-1-((3-methylpyridin-2-yl)oxy)propan-2-yl)-2-((S)-1-methylpyrrolidin-2-yl)propanamide and (S)-N-(2-methyl-1-((3-methylpyridin-2-yl)oxy)propan-2-yl)-2-((R)-1-methylpyrrolidin-2-yl)propanamide]
1.58 nM	Cc1cccnc1OCC(C)(C)NC(=O)[C@@H](C)[C@@H]1CCCN1C (racemic) [Example 67, (S)-N-(2-methyl-1-((3-methylpyridin-2-yl)oxy)propan-2-yl)-2-((S)-1-methylpyrrolidin-2-yl)propanamide and (R)-N-(2-methyl-1-((3-methylpyridin-2-yl)oxy)propan-2-yl)-2-((R)-1-methylpyrrolidin-2-yl)propanamide]
631 nM	COc1ccccc1C(C)(C)NC(=O)[C@@H](C)CN1CCCC1 (single isomer, unassigned) [Example 76]
398 nM	Cc1cccnc1OCC1(NC(=O)[C@@H](C)[C@H]2CCCN2C)CC1 (single isomer, unassigned) [Example 126]
398 nM	CN1CCC[C@H]1CC(=O)NC(C)(C)[C@H]1CCc2ccccc2O1 (single isomer, unassigned) [Example 129]
316 nM	CN1CCC[C@@H]1CC(=O)NC(C)(C)[C@H]1CCc2ccccc2O1 (single isomer, unassigned) [Example 130]
200 nM	C[C@H](CN1CCC1)C(=O)NC(C)(C)c1ccccc1Cl (single isomer, unassigned) [Example 133]
316 nM	C[C@@H](CN1CCCC1)C(=O)NC(C)(C)c1ccccc1Cl (single isomer, unassigned) [Example 137]
1260 nM	COc1ccc(C(C)(C)NC(=O)[C@@H](C)CN2CCC2)cc1 (single isomer, unassigned) [Example 139]
398 nM	Cc1ccccc1C(C)(C)NC(=O)[C@@H](C)CN1CCC1 (single isomer, unassigned) [Example 141]
200 nM	Cc1c(F)cccc1C(C)(C)NC(=O)[C@@H](C)CN1CCC1 (single isomer, unassigned) [Example 143]
100 nM	Cc1cccc(C(C)(C)NC(=O)[C@H](C)CN2CCC2)c1Cl (single isomer, unassigned) [Example 144]
501 nM	Cc1ccc(C(C)(C)NC(=O)[C@H](C)CN2CCC2)cc1 (single isomer, unassigned) [Example 148]
1000 nM	C[C@H](CN1CCC1)C(=O)NC(C)(C)c1cccc(F)c1 (single isomer, unassigned) [Example 152]
1260 nM	C[C@H](CN1CCC1)C(=O)NC(C)(C)c1ccc(Cl)cc1 (single isomer, unassigned) [Example 154]
2510 nM	C[C@@H](CN1CCC1)C(=O)NC(C)(C)c1ccccc1F (single isomer, unassigned) [Example 157]
> 5010 nM	O=C(CCN1CCC1)N[C@@H](c1cc(F)ccc1F)C(F)F (single isomer, unassigned) [Example 168]
251 nM	COc1c(F)cccc1C(C)(C)NC(=O)[C@@H](C)CN1CCC1 (single isomer, unassigned) [Example 172]
> 10000 nM	Cc1ccc([C@@H](CF)NC(=O)CCN2CCC2)cc1 (single isomer, unassigned) [Example 174]
126 nM	Cc1cccnc1OCC1(NC(=O)[C@@H](C)[C@@H]2CCCN2C)CC1 (single isomer, unassigned) [Example 176]
> 10000 nM	Cc1cccnc1OCC1(NC(=O)[C@H](C)[C@H]2CCCN2C)CC1 (single isomer, unassigned) [Example 177]
79.4 nM	CC[C@@H](CN1CCC1)C(=O)NC(C)(C)c1cccc(F)c1 (single isomer, unassigned) [Example 185]
200 nM	CC[C@H](CN1CCC1)C(=O)NC(C)(C)c1ccc(C)cc1 (single isomer, unassigned) [Example 186]

— patent US20230150981A1, “N-HETEROARYLALKYL-2-(HETEROCYCLYL AND HETEROCYCLYLMETHYL) ACETAMIDE DERIVATIVES AS SSTR4 AGONISTS” (Takeda Pharmaceutical Compnay Limited, priority 2020, published 2023)
